Laboratory results as given in patent US20090074672A1, “Tumor Boundary Imaging” (SRI International, priority 2007, published 2009).
Where no end group is shown, it is not given here.

System: fibrin gel
Assay: TG substrate viability: cross-linking into fibrin gel
Format: biochemical
Conditions: in the presence of Ca2+
Method: TG Substrate Viability Assays. Viability was tested by: (1) cross-linking into fibrin gel, and (2) reacting with fibrinogen in the presence of Guinea pig liver TG. […] In the presence of Ca2+, cross-linked fibrin clots were formed.

## peptide: TG substrate peptide NQEQVSP (SEQ ID NO:01) conjugated to FITC or HiLyte Fluor 750 via N-hydroxysuccinimide chemistry (also: FITC or HiLyte Fluor 750 conjugated via NHS chemistry)
  cross-linking into fibrin clot (fluorescence intensity): crosslinked into the fibrin clot
